One may read the logP as a log measure of how a compound divides between an organic and an aqueous phase. A word on the chromatographic logP: it is lipophilicity estimated from chromatographic retention.

One data set is described as follows: log P by HPLC. To be noted: EEC directive 79/831 Annex V. A8 by HPLC (gradient method, acetonitrile/0.1% aqueous phosphoric acid). The class given is physicochemical.
`CC(Nc1c(-c2ccc(F)cc2Cl)c(Cl)nc2nc(C3CC3)nn12)C(F)(F)F` (racemic) [compound 505] displayed a logP of 3.75.
Turning to `Cc1nc2nc(Cl)c(-c3ccc(F)cc3F)c(NC(C)C(F)(F)F)n2n1` (single isomer, unassigned) [compound 359], the lipophilicity (logP) came to 2.95.
Same read-out and setting: the value for `Cc1nc2nc(Cl)c(-c3ccc(F)cc3F)c(NC(C)C(F)(F)F)n2n1` (single isomer, unassigned) [compound 360] was 2.96; that for `C[C@H](Nc1c(-c2ccc(F)cc2F)c(Cl)nc2nc(C3CC3)nn12)C(F)(F)F` (single isomer, unassigned) [compound 489] was 3.51.
In turn, `C[C@H](Nc1c(-c2ccc(F)cc2F)c(Cl)nc2nc(C3CC3)nn12)C(F)(F)F` (single isomer, unassigned) [compound 490] returned a logP of 3.52.

The same data set, now with this note: HPLC.
The molecule `Fc1cc(F)c(-c2c(Cl)nc3nc(C(F)(F)F)nn3c2N2CCC(C(F)(F)F)CC2)c(F)c1` [Example 1] had a chromatographic logP of 4.43.
Turning to `Fc1cc(F)c(-c2c(Cl)nc3nc(C(F)(F)F)nn3c2Cl)c(F)c1` [Example 819, 5,7-dichloro-2-(trifluoromethyl)-6-(2,4,6-trifluorophenyl)[1,2,4]triazolo[1,5-a]pyrimidine], the chromatographic logP stood at 3.71.
The same measure, in the same setting: the value for `Oc1nc2nc(C(F)(F)F)nn2c(O)c1-c1c(F)cc(F)cc1F` [Example 832, 2-trifluoromethyl-6-(2,4,6-trifluoro-phenyl)-[1,2,4]triazolo[1,5-a]pyrimidine-5,7-diol] was 0.81.

The same data set, now with this note: HPLC, gradient method, acetonitrile/0.1% aqueous phosphoric acid; EEC directive 79/831 Annex V. A8.
`CC(C)C(C)Nc1c(-c2ccc(F)cc2Cl)c(Cl)nc2nc(C3CC3)nn12` (racemic) [compound 586] registered a logP of 4.25.
In turn, `CC(C)C(C)Nc1c(-c2ccc(F)cc2Cl)c(Cl)nc2nc(C3CC3)nn12` (racemic) [compound 587] registered a logP of 4.25.
`Cc1nc2nc(Cl)c(-c3ccc(F)cc3Cl)c(NC(C)C(F)(F)F)n2n1` (racemic) [compound 640] showed a logP of 3.19.
In turn, `CC(Nc1c(-c2ccc(F)cc2Cl)c(Cl)nc2nc(C3CC3)nn12)C(F)(F)F` (racemic) [compound 747] had a logP of 3.73.
`CC(Nc1c(-c2ccc(F)cc2Cl)c(Cl)nc2nc(C3CC3)nn12)C(F)(F)F` (racemic) [compound 748]: the logP came to 3.77. The logP values of the last two molecules are within 0.2 log units of each other.
Consider `CC(C)C(C)Nc1c(-c2ccc(F)cc2Cl)c(Cl)nc2nc(C3CC3)nn12` (racemic) [compound 775], for which the logP was 4.23.
For the molecule `Cc1nc2nc(Cl)c(-c3ccc(F)cc3Cl)c(N[C@@H](C)C(F)(F)F)n2n1` (single isomer, unassigned) [compound 641], the logP is on record as 3.2.
Turning to `Cc1nc2nc(Cl)c(-c3ccc(F)cc3Cl)c(N[C@@H](C)C(F)(F)F)n2n1` (single isomer, unassigned) [compound 642], the logP was determined as 3.17.
Same read-out and setting: the figure for `CC(Nc1c(-c2ccc(Cl)cc2Cl)c(Cl)nc2nc(C3CC3)nn12)C(F)(F)F` (single isomer, unassigned) [compound 710] is 4.12; for `CC(Nc1c(-c2ccc(Cl)cc2Cl)c(Cl)nc2nc(C3CC3)nn12)C(F)(F)F` (single isomer, unassigned) [compound 711] it is 4.19; for `CC(C)C(C)Nc1c(-c2ccc(Cl)cc2Cl)c(Cl)nc2nc(C3CC3)nn12` (single isomer, unassigned) [compound 756] it is 4.72.
The molecule `CC(C)C(C)Nc1c(-c2ccc(Cl)cc2Cl)c(Cl)nc2nc(C3CC3)nn12` (single isomer, unassigned) [compound 757] came in with a logP of 4.72.
The same measure, in the same setting: the figure for `CC(C)C(C)Nc1c(-c2ccc(Cl)cc2Cl)c(Cl)nc2nc(C3CC3)nn12` (single isomer, unassigned) [compound 758] is 4.72; for `CC(C)C(C)Nc1c(-c2ccc(Cl)cc2Cl)c(Cl)nc2nc(C3CC3)nn12` (single isomer, unassigned) [compound 759] it is 4.72.
On the same count and under the same terms, the figure for `CC(Nc1c(-c2ccc(F)cc2Cl)c(Cl)nc2nc(C3CC3)nn12)C(F)(F)F` (single isomer, unassigned) [compound 767] is 3.73; for `CC(Nc1c(-c2ccc(F)cc2Cl)c(Cl)nc2nc(C3CC3)nn12)C(F)(F)F` (single isomer, unassigned) [compound 768] it is 3.77; for `CCc1nc2nc(Cl)c(-c3c(F)cc(F)cc3F)c(N3CCC(C(F)(F)F)CC3)n2n1` [compound 2] it is 3.99.
`CCc1nc2nc(Cl)c(-c3c(F)cc(F)cc3F)c(NCC(F)(F)F)n2n1` [compound 5] displayed a logP of 3.06.
As to `CCc1nc2nc(Cl)c(-c3c(F)cc(F)cc3F)c(NCCC(F)(F)F)n2n1` [compound 6], the logP came out at 3.18. The logP values of the last two molecules are within 0.2 log units of each other.
The same measure, in the same setting: the value for `CC(Nc1c(-c2c(F)cc(F)cc2F)c(Cl)nc2nc(C(C)(C)C)nn12)C(F)(F)F` (stereo not shown) [compound 9] was 4.24; that for `C=C(C)CN(CC)c1c(-c2c(F)cc(F)cc2F)c(Cl)nc2nc(C(F)(F)F)nn12` [compound 10] was 4.73.
With `CC(C)Nc1c(-c2c(F)cc(F)cc2F)c(Cl)nc2nc(C(F)(F)F)nn12` [compound 11], the log partition coefficient (logP) is recorded as 3.8.
Molecule `Cc1nc2nc(Cl)c(-c3c(F)cc(F)cc3F)c(NC(C)C(F)(F)F)n2n1` (stereo not shown) [compound 12] displayed a logP of 3.01.
For the molecule `Cc1nc2nc(Cl)c(-c3c(F)cc(F)cc3F)c(NCC(F)(F)F)n2n1` [compound 13], the log partition coefficient (logP) is listed as 2.69.
For the molecule `C=C(C)CN(CC)c1c(-c2c(F)cc(F)cc2F)c(Cl)nc2nc(C)nn12` [compound 14], the logP is 3.83.
Molecule `C=C(C)CN(CC)c1c(-c2c(F)cc(F)cc2F)c(Cl)nc2nc(CC)nn12` [compound 15] showed a logP of 4.34.
On the same count and under the same terms, the figure for `C=C(C)CNc1c(-c2c(F)cc(F)cc2F)c(Cl)nc2nc(C)nn12` [compound 16] is 2.76.
Still for that read-out and setting: the figure for `CC(C)Nc1c(-c2ccccc2Cl)c(Cl)nc2nc(C3CC3)nn12` [compound 17] is 3.39; for `Cc1nc2nc(Cl)c(-c3c(F)cc(F)cc3F)c(NCC#N)n2n1` [compound 18] it is 2.02.
Molecule `C=C(C)CNc1c(-c2c(F)cc(F)cc2F)c(Cl)nc2nc(CC)nn12` [compound 21] came in with a logP of 3.15.
`C=C(C)CNc1c(-c2c(F)cc(F)cc2F)c(Cl)nc2nc(C(F)(F)F)nn12` [compound 22] returned a logP of 3.82.
Turning to `CCc1nc2nc(Cl)c(-c3c(F)cc(F)cc3F)c(NCC#N)n2n1` [compound 23], the log partition coefficient (logP) was 2.27.
For the molecule `N#CCNc1c(-c2c(F)cc(F)cc2F)c(Cl)nc2nc(C(F)(F)F)nn12` [compound 24], the logP was found to be 2.91.
On the same count and under the same terms, the value for `CC(Nc1c(-c2c(F)cc(F)cc2F)c(Br)nc2nc(C(F)(F)F)nn12)C(F)(F)F` (stereo not shown) [compound 25] was 3.99; that for `Cc1nc2nc(Cl)c(-c3c(F)cc(F)cc3F)c(NC(C)C)n2n1` [compound 26] was 2.71.
`Cc1nc2nc(Cl)c(-c3c(F)cc(F)cc3F)c(NNC(C)C)n2n1` [compound 28] showed a logP of 2.7. The logP values of the last two molecules are within 0.2 log units of each other.
`CCN(CCOC)c1c(-c2c(F)cc(F)cc2F)c(Cl)nc2nc(C)nn12` [compound 29] yielded a logP of 2.93.
The same measure, in the same setting: the value for `CCc1nc2nc(Cl)c(-c3c(F)cc(F)cc3F)c(N(CC)CCOC)n2n1` [compound 30] was 3.37.
Consider `CCN(CCOC)c1c(-c2c(F)cc(F)cc2F)c(Cl)nc2nc(C(F)(F)F)nn12` [compound 31], for which the lipophilicity (logP) is 4.04.
The molecule `Fc1cc(F)c(-c2c(Cl)nc3nc(C(F)(F)F)nn3c2NC2CCCC2)c(F)c1` [compound 32] yielded a logP of 4.25.
The molecule `CCN(CC)c1c(-c2c(F)cc(F)cc2F)c(Cl)nc2nc(C(F)(F)F)nn12` [compound 33] registered a logP of 4.25.
As for `Fc1cc(F)c(-c2c(Cl)nc3nc(C(F)(F)F)nn3c2N2CCOCC2)c(F)c1` [compound 34], the logP came out at 3.22.
For the molecule `Fc1cc(F)c(-c2c(Cl)nc3nc(C(F)(F)F)nn3c2NC2CC2)c(F)c1` [compound 35], the logP is 3.53.
Take `CN(C)c1c(-c2ccccc2Cl)c(Cl)nc2nc(C3CC3)nn12` [compound 36]: the logP came out at 3.13.
The molecule `CCc1nc2nc(Cl)c(-c3c(F)cc(F)cc3F)c(NNC(C)C)n2n1` [compound 49] gave a logP of 3.05.
Molecule `Cc1nc2nc(Cl)c(-c3c(F)cc(F)cc3F)c(N3CC(C)OC(C)C3)n2n1` (stereo not shown) [compound 58] had a logP of 3.
In turn, `Cc1nc2nc(Cl)c(-c3c(F)cc(F)cc3F)c(N3CCCC3)n2n1` [compound 59] came in with a logP of 2.86.
`Cc1nc2nc(Cl)c(-c3c(F)cc(F)cc3F)c(N3CCCCC3)n2n1` [compound 60] displayed a logP of 3.43.
In turn, `CCCNc1c(-c2c(F)cc(F)cc2F)c(Cl)nc2nc(C)nn12` [compound 61] yielded a logP of 2.75.
In the case of `Cc1nc2nc(Cl)c(-c3c(F)cc(F)cc3F)c(NC3CCCC3)n2n1` [compound 62], the logP was found to be 3.23.
For the molecule `CCN(CC)c1c(-c2c(F)cc(F)cc2F)c(Cl)nc2nc(C)nn12` [compound 63], the logP is 3.23.
Turning to `COCCNc1c(-c2c(F)cc(F)cc2F)c(Cl)nc2nc(C)nn12` [compound 64], the logP is listed as 2.34.
The same measure, in the same setting: the figure for `Cc1nc2nc(Cl)c(-c3c(F)cc(F)cc3F)c(NC3CC3)n2n1` [compound 65] is 2.51.
For `Cc1nc2nc(Cl)c(-c3c(F)cc(F)cc3F)c(N3CCSCC3)n2n1` [compound 66], the logP turned out to be 3.09.
With `Cc1nc2nc(Cl)c(-c3c(F)cc(F)cc3F)c(N3CCC(C(F)(F)F)CC3)n2n1` [compound 67], the logP was found to be 3.6.
`Cc1nc2nc(Cl)c(-c3c(F)cc(F)cc3F)c(NCC3CC3)n2n1` [compound 68] had a logP of 2.86.
With `Cc1nc2nc(Cl)c(-c3c(F)cc(F)cc3F)c(NC(C)C(F)(F)F)n2n1` (stereo not shown) [compound 69], the logP stood at 3.04. The logP values of the last two molecules are within 0.2 log units of each other.
`Cc1nc2nc(Cl)c(-c3c(F)cc(F)cc3F)c(NCCC(F)(F)F)n2n1` [compound 70]: the logP is on record as 2.85.
Take `CCc1nc2nc(Cl)c(-c3c(F)cc(F)cc3F)c(N3CC(C)OC(C)C3)n2n1` (stereo not shown) [compound 71]: the logP amounted to 3.57.

The values above are taken from patent publication US7186831B2, “5-halo-2-alkyl[1,2,4]triazolo[1,5-a]pyrimidin-7-amines” (priority 2001, dated 2007).
